In patent publication US11981679B2, “Tricyclic compounds, compositions and medicinal applications thereof” (IMPETIS BIOSCIENCES LTD., priority 2018, dated 2024):
pKi: −log10 of the molar value.

Columns and labels:
A2A adenosine receptor = target: T1, A2A adenosine receptor (Homo sapiens, UniProt P29274); experiment: cAMP assay for adenosine receptor (HTRF), HEK-A2A; format: cell-based; details: HEK-A2A cells, agonist 10 nM CGS-21680, Rolipram 20 μM, read-out: A2A Functional Ki
T1 construct: expressed in transfected cells; host or cells: HEK-293 (HEK-A2A)
Method: (§1) cAMP Assay for Adenosine Receptor.
(§2) The functional activity of test compounds on A2A and A2B adenosine receptors and selectivity over A1 adenosine was determined using HTRF based cAMP assay (Cisbio). Briefly, overnight seeded cultures (HEK-A1, HEK-A2A, HEK-A2B) were treated with 1U/ml ADA for 90 minutes at 37° C. and 5% CO2. Cell suspensions were treated with increasing concentrations of test compounds for 15 minutes followed by treatment with agonists for 15 minutes (1 nM CPA for HEK-A1 and 70 nM NECA for HEK-A2B) or 30 min (10 nM CGS-21680 for HEK-A2A) at room temperature with continuous mixing in incomplete DMEM supplemented with 1U/ml ADA. Rolipram (20 μM) was included in the assay for A1 and A2A adenosine receptors. For functional activity of HEK-A1, cell suspensions were further treated with forskolin for 30 minutes at room temperature with constant mixing. cAMP levels were quantified using a Flex Station III (Molecular Devices) at an excitation maximum of 313 nm and emission maxima of 620 nm and 665 nm. Data was analyzed using GraphPad Prism to generate IC50 and Ki. The biological activity data is provided in the Table below. <10 nM are represented as ++++, 10-30 nM as +++, 30-100 nM ++ and the K, value >100 nM as +.

A2B adenosine receptor = target: T2, A2B adenosine receptor (Homo sapiens, UniProt P29275); experiment: cAMP assay for adenosine receptor (HTRF), HEK-A2B; format: cell-based; details: HEK-A2B cells, agonist 70 nM NECA, read-out: A2B Functional Ki
T2 construct: expressed in transfected cells; host or cells: HEK-293 (HEK-A2B)
T2 sequence (P29275 1-332): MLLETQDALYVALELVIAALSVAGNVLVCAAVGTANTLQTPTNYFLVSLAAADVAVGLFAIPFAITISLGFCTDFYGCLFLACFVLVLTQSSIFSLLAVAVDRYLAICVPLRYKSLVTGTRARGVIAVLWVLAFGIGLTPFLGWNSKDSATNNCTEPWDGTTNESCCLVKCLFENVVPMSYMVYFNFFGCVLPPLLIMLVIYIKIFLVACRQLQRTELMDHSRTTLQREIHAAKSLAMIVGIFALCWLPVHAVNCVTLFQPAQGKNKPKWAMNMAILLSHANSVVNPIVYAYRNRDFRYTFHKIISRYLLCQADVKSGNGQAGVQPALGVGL
Method: as §1, §2

T1 sequence (P29274 whole entry): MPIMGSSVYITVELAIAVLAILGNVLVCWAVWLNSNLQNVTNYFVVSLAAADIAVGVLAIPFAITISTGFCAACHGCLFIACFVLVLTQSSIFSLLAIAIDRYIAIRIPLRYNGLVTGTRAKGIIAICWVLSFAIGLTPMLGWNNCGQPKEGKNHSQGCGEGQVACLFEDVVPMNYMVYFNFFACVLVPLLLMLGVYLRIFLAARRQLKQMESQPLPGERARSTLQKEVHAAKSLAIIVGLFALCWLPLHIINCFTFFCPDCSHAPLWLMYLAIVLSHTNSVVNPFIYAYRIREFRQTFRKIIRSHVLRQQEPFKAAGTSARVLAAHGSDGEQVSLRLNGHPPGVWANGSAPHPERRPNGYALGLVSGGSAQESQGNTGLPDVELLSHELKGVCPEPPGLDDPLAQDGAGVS

SMILES	pKi (A2A adenosine receptor)	pKi (A2B adenosine receptor)
CCCn1c(=O)c2[nH]c(-c3cnn(Cc4cccc(C(F)(F)F)c4)c3)nc2n2ccnc12 [Example A1, 5-propyl-2-[1-[[3-(trifluoromethyl)phenyl]methyl]pyrazol-4-yl]-3H-imidazo[2,1-b]purin-4-one]	> 8.00	> 8.00
Cn1c(=O)c2[nH]c(-c3cnn(Cc4cccc(C(F)(F)F)c4)c3)nc2n2ccnc12 [Example A3, 5-methyl-2-[1-[[3-(trifluoromethyl)phenyl]methyl]pyrazol-4-yl]-3H-imidazo[2,1-b]purin-4-one]	7.52 to 8.00	> 8.00
CCCn1c(=O)c2[nH]c(-c3cnn(CCc4cccc(F)c4)c3)nc2n2ccnc12 [Example A5, 2-[1-[2-(3-fluorophenyl)ethyl]pyrazol-4-yl]-5-propyl-3H-imidazo[2,1-b]purin-4-one]	7.00 to 7.52	–
CCCn1c(=O)c2[nH]c(-c3cnn(C)c3)nc2n2ccnc12 [Example A6, 2-(1-methylpyrazol-4-yl)-5-propyl-3H-imidazo[2,1-b]purin-4-one]	< 7.00	–
CCCn1c(=O)c2[nH]c(-c3cnn(C(C)(C)CC)c3)nc2n2ccnc12 [Example A7, 2-[1-(1,1-dimethylpropyl)pyrazol-4-yl]-5-propyl-3H-imidazo[2,1-b]purin-4-one]	> 8.00	> 8.00
CCCn1c(=O)c2[nH]c(-c3cnn(CC#Cc4cccc(C(=O)OCC)c4)c3)nc2n2ccnc12 [Example B2, Ethyl 3-[3-[4-(4-oxo-5-propyl-3H-imidazo[2,1-b]purin-2-yl)pyrazol-1-yl]prop-1-ynyl]benzoate]	7.52 to 8.00	> 8.00
CCCn1c(=O)c2[nH]c(-c3cnn(CC#Cc4cccc(OC(F)(F)F)c4)c3)nc2n2ccnc12 [Example B3, 5-propyl-2-[1-[3-[3-(trifluoromethoxy)phenyl]prop-2-ynyl]pyrazol-4-yl]-3H-imidazo[2,1-b]purin-4-one]	7.52 to 8.00	> 8.00
CCCn1c(=O)c2[nH]c(-c3cnn(CC#Cc4cc(C(=O)OCC)ccc4C)c3)nc2n2ccnc12 [Example B6, Ethyl 4-methyl-3-[3-[4-(4-oxo-5-propyl-3H-imidazo[2,1-b]purin-2-yl)pyrazol-1-yl]prop-1-ynyl]benzoate]	7.00 to 7.52	> 8.00
CCCn1c(=O)c2[nH]c(-c3cnn(Cc4cccc(C#N)c4)c3)nc2n2ccnc12 [Example B7, 3-[[4-(4-oxo-5-propyl-3H-imidazo[2,1-b]purin-2-yl)pyrazol-1-yl]methyl]benzonitrile]	> 8.00	> 8.00
CCCn1c(=O)c2[nH]c(-c3cnn(C(C)C)c3)nc2n2ccnc12 [Example B8, 2-(1-isopropylpyrazol-4-yl)-5-propyl-3H-imidazo[2,1-b]purin-4-one]	7.52 to 8.00	> 8.00
CCCCn1cc(-c2nc3c([nH]2)c(=O)n(CCC)c2nccn32)cn1 [Example B9, 2-(1-butylpyrazol-4-yl)-5-propyl-3H-imidazo[2,1-b]purin-4-one]	7.52 to 8.00	> 8.00
CCCn1c(=O)c2[nH]c(-c3cnn(CC)c3)nc2n2ccnc12 [Example B10, 2-(1-ethylpyrazol-4-yl)-5-propyl-3H-imidazo[2,1-b]purin-4-one]	7.52 to 8.00	> 8.00
CCCn1c(=O)c2[nH]c(-c3cnn(CCOC)c3)nc2n2ccnc12 [Example B11, 2-[1-(2-methoxyethyl)pyrazol-4-yl]-5-propyl-3H-imidazo[2,1-b]purin-4-one]	< 7.00	7.52 to 8.00
CCCn1c(=O)c2[nH]c(-c3cnn(CCN(C)C)c3)nc2n2ccnc12 [Example B12, 2-[1-(2-dimethylaminoethyl)pyrazol-4-yl]-5-propyl-3H-imidazo[2,1-b]purin-4-one]	< 7.00	7.52 to 8.00
CCCn1cc(-c2nc3c([nH]2)c(=O)n(CCC)c2nccn32)cn1 [Example B13, 5-propyl-2-(1-propylpyrazol-4-yl)-3H-imidazo[2,1-b]purin-4-one]	> 8.00	> 8.00
CCCn1c(=O)c2[nH]c(-c3cnn(CC(=O)N(C)C)c3)nc2n2ccnc12 [Example B14, N,N-dimethyl-2-[4-(4-oxo-5-propyl-3H-imidazo[2,1-b]purin-2-yl)pyrazol-1-yl]acetamide]	< 7.00	> 8.00
CCCn1c(=O)c2[nH]c(-c3cnn(CC4CCC4)c3)nc2n2ccnc12 [Example B16, 2-[1-(cyclobutylmethyl)pyrazol-4-yl]-5-propyl-3H-imidazo[2,1-b]purin-4-one]	> 8.00	> 8.00
CCCn1c(=O)c2[nH]c(-c3cnn(CC(C)C)c3)nc2n2ccnc12 [Example B17, 2-(1-isobutylpyrazol-4-yl)-5-propyl-3H-imidazo[2,1-b]purin-4-one]	7.52 to 8.00	> 8.00
CCCn1c(=O)c2[nH]c(-c3cnn(CC(C)(C)C)c3)nc2n2ccnc12 [Example B19, 2-[1-(2,2-dimethylpropyl)pyrazol-4-yl]-5-propyl-3H-imidazo[2,1-b]purin-4-one]	> 8.00	> 8.00
CCCn1c(=O)c2[nH]c(-c3cnn(C(C)CC)c3)nc2n2ccnc12 (stereo not shown) [Example B20, 5-propyl-2-(1-sec-butylpyrazol-4-yl)-3H-imidazo[2,1-b]purin-4-one]	> 8.00	> 8.00
CCCn1c(=O)c2[nH]c(-c3cnn(CC4CC(=O)N(c5cncc(C(F)(F)F)c5)C4)c3)nc2n2ccnc12 (stereo not shown) [Example C2, 2-[1-[[5-oxo-1-[5-(trifluoromethyl)-3-pyridyl]pyrrolidin-3-yl]methyl]pyrazol-4-yl]-5-propyl-3H-imidazo[2,1-b]purin-4-one]	7.00 to 7.52	> 8.00
CCCn1c(=O)c2[nH]c(-c3cnn(CCN4CCCCC4)c3)nc2n2ccnc12 [Example D1, 2-[1-[2-(1-piperidyl)ethyl]pyrazol-4-yl]-5-propyl-3H-imidazo[2,1-b]purin-4-one]	7.00 to 7.52	> 8.00
CCCn1c(=O)c2[nH]c(-c3cnn(Cc4cccc(CO)c4)c3)nc2n2ccnc12 [Example E1, 2-[1-[[3-(hydroxymethyl)phenyl]methyl]pyrazol-4-yl]-5-propyl-3H-imidazo[2,1-b]purin-4-one]	> 8.00	> 8.00
CCCn1c(=O)c2[nH]c(-c3cnn(Cc4cccc(C(C)(C)O)c4)c3)nc2n2ccnc12 [Example F1, 2-[1-[[3-(1-hydroxy-1-methyl-ethyl)phenyl]methyl]pyrazol-4-yl]-5-propyl-3H-imidazo[2,1-b]purin-4-one]	7.52 to 8.00	> 8.00
CCCn1c(=O)c2[nH]c(-c3cnn(Cc4cccc(C(=O)O)c4)c3)nc2n2ccnc12 [Example G1, 3-[[4-(4-oxo-5-propyl-3H-imidazo[2,1-b]purin-2-yl)pyrazol-1-yl]methyl]benzoic Acid]	7.52 to 8.00	> 8.00
CCCn1c(=O)c2[nH]c(-c3cnn(CC(=O)O)c3)nc2n2ccnc12 [Example H1, 2-[4-(4-oxo-5-propyl-3H-imidazo[2,1-b]purin-2-yl)pyrazol-1-yl]acetic acid]	< 7.00	7.00 to 7.52
CCCn1c(=O)c2[nH]c(-c3cnn(CC(O)CO)c3)nc2n2ccnc12 (stereo not shown) [Example J1, 2-[1-(2,3-dihydroxypropyl)pyrazol-4-yl]-5-propyl-3H-imidazo[2,1-b]purin-4-one]	7.00 to 7.52	7.00 to 7.52
